“And” between values parts separate entries of the source, which are not always exact repeats. Equal values may be shown once. Read-outs that look alike come from different tables or passages of the source.
Assays:
[1] = system: Pseudomonas aeruginosa ATCC 27853; experiment: Single-dose growth inhibition, Pa; format: cell-based
Procedure: Inhibition of bacterial growth was determined by measuring the absorbance at 600 nm (OD600), using a Tecan M1000 Pro monochromator plate reader. Growth inhibition was calculated for each well, relative to the reference growths determined from a negative control (media only) and positive control (bacteria without inhibitors) incubated in the same plate. A single dose of 32 μg/mL of COE (final concentration) was used for each test.
Percentage growth inhibition of an individual sample was calculated based on growth in a reference well determined from negative controls (media only) and positive controls (bacterial/fungal media without inhibitors). Negative inhibition values indicate that the growth rate (or OD600) is higher compared to the reference growth (bacteria/fungi only, set to 0% inhibition). The growth rates for all bacteria and fungi may vary at −/+10%, which were within the reported normal distribution of bacterial/fungal growth. Any significant variations (or outliers/hits) were identified by the modified Z-Score, and the active compounds were selected by a combination of inhibition values and Z-Score.
A M(i) value of >|2.5| (absolute) would classify the sample as outliers or hits. Active samples were denoted as compounds with inhibition values equal to or above 80% and absolute Z-Score above |2.5| for either replicate (n=2 on different plates). Partial active samples were denoted as compounds with inhibition values from 50% to <80%, or absolute Z-Score below |2.5|.

E. coli K12 = experiment: Cellular uptake by E. coli K12 (absorption spectroscopy); format: cell-based, Escherichia coli; conditions: for Uptake by E. coli K12: 10 μg/mL COE in PBS, OD=0.5, 2 hrs, room temperature; for Uptake by E. coli K12 at 4° C.: 10 μg/mL COE, 2 hrs, 4° C. (below membrane phase transition temperature)
Procedure: The relative membrane affinity of COE-D4, COE-D6 and COE-D8 was estimated from the quantity taken up by cells using absorption spectroscopy. After cultures of E. coli K12 were grown in MHB at 37° C., the cells were harvested by centrifugation (6000 rpm, 5 min) and washed twice with PBS solution (pH=7.2). The cells were then resuspended in PBS and with the density adjusted to OD=1.0. Thereafter, 5 mL of this cell suspension was mixed with an equal volume of 20 μg/mL of COE in PBS to achieve a final concentration of 10 μg/mL (in triplicates). After exposure to COEs for 2 hrs at room temperature and with shaking (200 rpm), the cells were removed by centrifugation and the supernatant was collected for absorbance scans to quantify the remaining COE in the supernatant. The uptake quantity was estimated by comparing the absorbance of the supernatant to the corresponding control COE solution (i.e. 10 μg/mL in PBS). The procedure for uptake measurements at the lower temperature is similar to the one described above, but with the exposure to COEs and centrifugation occurring at 4° C. instead of room temperature
The effect of molecular structures of the COEs on relative membrane affinity, estimated from the amount taken up by E. coli K12, was measured by absorption spectroscopy (FIG. 8a-c). These experiments utilised cell suspensions (OD=0.5) incubated for 2 hrs with 10 μg mL^−1 of various COE. Cells were removed by centrifugation, and the amount of uncomplexed COE was determined from the optical absorption spectra. The longest molecule, COE-D8, achieved the highest uptake in bacteria (72%). In contrast, only 3% of COE-D4 was absorbed while the uptake for COE-D6 was 16% (Table 1a).
Parallel experiments were carried out at 4° C. […] As a result of the reduced fluidity of cellular membrane at lower temperature, the uptake decreased to around 1% for COE-D4, 5% for COE-D6, and 34% for COE-D8.

MRSA BAA-40 [2] = experiment: Resistance evolution experiment (serial passage); format: cell-based, Staphylococcus aureus; conditions: for MIC on MRSA BAA-40 during serial passage: from the 5th day onwards, 17 days; for Tendency to cause resistance in the bacteria: serial passage for 17 days
Procedure: To evaluate the propensity of COE to induce resistance, a serial passage of MRSA BAA-40 in MHB medium containing 100-fold diluted stationary-phase culture with increasing concentrations of COE was performed.

MRSA BAA-40 [3] = experiment: Time-kill assay; format: cell-based, Staphylococcus aureus; conditions: 32 μg/mL; for Reduction of viability of MRSA BAA-40 compared with vancomycin: FIG. 11a
Procedure: A stationary-phase culture of MRSA BAA-40 was diluted to 2×10^8 CFU/mL in fresh MHB. 500 μL of this suspension was then mixed with another 500 μL of MHB containing twice the desired final concentrations of COEs and vancomycin (32 μg/mL). The tube was incubated at 37° C. with 200 rpm shaking. Aliquots were removed at various time points and were serially diluted in PBS, and plated on MHB plates to enumerate CFU/mL.

[4] = system: Staphylococcus aureus 25923; experiment: MIC against S. aureus 25923; format: cell-based
Procedure: (§1) The respective minimum inhibition concentration (MIC) of each COE molecule was determined using a broth microdilution method. Briefly, COEs were diluted via a 2-fold dilution series in 100 μL of either Muller Hinton Broth (MHB) for E. coli and S. aureus or Brain Heart Infusion Broth (BHI) for E. faecalis in a 96-well plate to achieve the desired final concentration. Subsequently, each well was inoculated with 100 μL of 1×10^6 colony forming units (CFU) mL^−1 of the respective microorganism in MHB for E. coli or BHI for E. faecalis to achieve an inoculum density of 5×10^5 CFU mL^−1. The plates were then incubated at 37° C. with shaking (200 rpm) for 18 hrs. […] The results were obtained in triplicate.
(§2) The antimicrobial effects of COE-D62N and COE-D82N were also tested on the Gram-positive Staphylococcus aureus 25923 and Methicillin-resistant Staphylococcus aureus(MRSA BAA-40), in comparison with vancomycin (FIG. 5b).

[5] = system: Staphylococcus aureus on reconstituted human epidermis (RHE); experiment: Reconstituted human epidermis skin model inoculated with S. aureus; format: cell-based; conditions: 10× the MIC of S. aureus
Procedure: Reconstituted human epidermis (RHE) was cultured in multiwell plates on polymer membrane inserts (0.5 cm^2 surface area) using immortalized human keratinocytes (250,000 NTERTS) in CnT prime media (from CellnTec) for 48 hours after which they were transferred to CnT 3D prime media for 24 hours before air lifting. The media was changed every 48 hours thereafter and RHE was grown for at least 7 days. After the stratified layers of the RHE were formed, a standardised inoculum of Staphylococcus aureus was added to RHEs (with the exception of the negative control), followed by the addition of 10× the MIC of S. aureaus of antimicrobial COEs.

[6] = system: Methicillin-resistant Staphylococcus aureus (MRSA BAA-40); experiment: MIC against MRSA BAA-40; format: cell-based; conditions: for MIC in comparison with vancomycin: all three strains: E. coli K12, S. aureus 25923, MRSA BAA-40 (FIG. 5b)
Procedure: as §1, §2

[7] = ATCC27853, read-out: Growth inhibition Pa
[8] = ATCC27853, 32 μg/mL single dose, n=2, read-out: Growth inhibition Pa

Row | Structure (SMILES) | inhibition at 32 µg/mL [1, 7] [%] | Uptake by E. coli K12 (E. coli K12) | Uptake by E. coli K12 at 4° C. (E. coli K12) | Cell affinity relative to COE-D4 (E. coli K12; E. coli K12) [times] | MIC on MRSA BAA-40 during serial passage (MRSA BAA-40 [2]) | Tendency to cause resistance in the bacteria (MRSA BAA-40 [2]) | inhibition at 32 µg/mL [1, 8] [%] | Reduction of viability of MRSA BAA-40 compared with vancomycin (MRSA BAA-40 [3]) | MIC [4] [µg/mL] | Skin structure of infected RHE model after treatment [5] | MIC ([6]; Staphylococcus aureus) [µg/mL] | MIC in comparison with vancomycin [6] | Time to reduce viability of MRSA close to the minimum (MRSA BAA-40 [3]) [h]
1 | C[N+](C)(C)CCCCOc1ccc(/C=C/c2ccc(OCCCC[N+](C)(C)C)cc2)cc1 [COE-D4] | < 50 | 3% and 3 ± 2% | around 1% | – | – | – | – | – | – | – | – | – | –
2 | C[N+](C)(C)CCCCCCOc1ccc(/C=C/c2ccc(OCCCCCC[N+](C)(C)C)cc2)cc1 [COE-D6] | < 50 | 16% and 16 ± 3% | ~5% | – | – | – | – | – | – | – | – | – | –
3 | C[N+](C)(C)CCCCCCCCOc1ccc(/C=C/c2ccc(OCCCCCCCC[N+](C)(C)C)cc2)cc1 [COE-D8] | 50 to 80 | 72% and 72 ± 5% | ~34% | 30 | – | – | – | – | – | – | – | – | –
4 | CN(C)CC[N+](C)(C)CCCCCCOc1ccc(/C=C/c2ccc(OCCCCCC[N+](C)(C)CCN(C)C)cc2)cc1 [COE-D62N] | – | 11±2% | – | – | remained relatively constant | low tendency to cause resistance | < 50 | much faster than that of vancomycin | 1 | intact skin structure | 1 | lower MIC than vancomycin | –
5 | CN(C)CC[N+](C)(C)CCCCCCCCOc1ccc(/C=C/c2ccc(OCCCCCCCC[N+](C)(C)CCN(C)C)cc2)cc1 [COE-D82N] | – | 76±3% | – | – | remained relatively constant | low tendency to cause resistance | 50 to 80 | much faster than that of vancomycin | – | intact skin structure | – | lower MIC than vancomycin | ≤ 2

From patent US12157713B2, “Conjugated oligoelectrolytes as antimicrobial agents” (Nanyang Technological University, priority 2018, dated 2024)
